Tests used:
[1] = tested on: basophils (CD63 expression) in human whole blood; assay: 384-well HTBS Whole Blood CD63 Basophil Assay; type: cell-based; conditions: human whole blood (25% blood); for IC50: comparison table; for EC50: Homo sapiens, anti-FceRI mAb activation
Procedure: Syk activity was assessed in relation to reduced activation of basophils as measured by the expression of CD63 in a human whole blood basophil cellular assay (25% blood). Basophil activation was measured in human whole blood using the Flow CAST kit (Buhlmann Laboratories AG, Baselstrasse, Switzerland) following the protocol provided by the manufacturer with minor modifications. Fresh human whole blood in heparin was collected and delivered same day (AllCells, Emeryville, Calif.). Whole blood samples were incubated with either DMSO (1% final) or serial diluted compounds in DMSO for 60 minutes at 37° C. Basophils were activated using the anti-FceRI mAb and stained with anti-CD63-FITC and anti-CCR3-PE for 20 minutes at 37° C. (per well: 50 μL of whole blood was mixed with 113 μL of stimulation buffer, 8.5 μL anti-FceRI mAb, 8.5 μL Ab stain CCR3-PE/CD63-FITC). Cells were centrifuged at 1000×g for 18 minutes and 150 μL/well of supernatant removed. Red blood cells were lysed and cells fixed by 2 rounds of cell lysing: resuspending cell pellets with 150 μL/well 1× lysis buffer, incubating at room temperature for 10 minutes, and collecting cell pellets by centrifuging for 1200 rpms for 5 minutes. Cells were washed with 150 μL/well wash buffer twice, and resuspended in a final volume of 75 μL/well of wash buffer for either immediate flow cytometery analysis or overnight incubation at 4° C. followed by flow cytometry analysis. Degranulation (basophil activation) was detected by CD63 surface expression on CCR3 positive cells. The percent CD63 positive cells within the gated basophil population were determined and normalized to the DMSO (negative control) and control compound (positive control).

[2] = Kinetic Solubility in phosphate buffer at pH 7.4; type: physicochemical; conditions: 37 °C, aqueous buffer, kinetic from dmso stock; phosphate buffer pH 7.4
Procedure: The kinetic solubility of compounds in phosphate buffer at pH 7.4 was assessed. The compounds to be tested were dissolved in dimethylsulfoxide at a 10 mM concentration. Stock samples were diluted, 3 μl with 297 μl of the phosphate buffer at pH 7.4 (DulBecco's phosphate buffered saline (Sigma-Aldrich D8662), overall molarity is 0.149 M and pH 7.43). The samples were then incubated for 24 hours at 37° C. with shaking, the centrifuged and an aliquot taken and tested relative to a known standard concentration of 0.1 mM.

hepatocytes = type: in vitro ADME; conditions: human
Procedure: The human […] stability of the compounds as predicted hepatocyte clearance in L/hr/kg was assessed. Compounds to be tested were diluted to 200 μM (4 μl of 10 mM DMSO stock into 196 μl ACN:H2O (50:50). Propranolol was used as a positive control, and buffer only without hepatocytes as 0% control. These were further diluted 4 μl with 891 μl KHB buffer (InVitroGRO catalog number Z99074) to provide 2× dosing solution. To each well of 24 well plate, 250 μl of the 2× dosing solution was added to each well with 250 μl of hepatocytes cells (1×10^6 viable cells/ml per well) or KHB for control samples to achieve a final compound concentration of 1 μM during incubation. The final solvent concentration was 0.01% DMSO and 0.25% ACN. The culture plate was placed on a rocker and incubated at 37° C., 5% CO2. Samples were collected at time 0, 1, 3, and 6 hours. The loss of parent compound was determined using LC-MS methods against a standard curve.

[3] = tested on: aberrant GVHD B-cell populations; conditions: ex vivo; cited from earlier work

IC50 [1]	solubility kinetic at 24 h [2]	Hheps CL (hepatocytes)	EC50 [1]	SMILES	function and frequency of aberrant GVHD B-cell populations [3]
63 nM	> 90 µM	1.5 mL/min/kg	–	Nc1cncc(-c2cn3ccnc3c(Nc3ccc(N4CCO[C@@H](CO)C4)cc3)n2)n1 [Ex.-3, (R)-(4-(4-((6-(6-aminopyrazin-2-yl)imidazo[1,2-a]pyrazin-8-yl)amino)phenyl)morpholin-2-yl)methanol]	–
157 nM	> 90 µM	1.33 mL/min/kg	< 200 nM	Cc1c(-c2cncc(N)n2)nc(Nc2ccc(N3CCN(C4COC4)CC3)cc2)c2nccn12 [Ex.-4, 6-(6-aminopyrazin-2-yl)-5-methyl-N-(4-(4-(oxetan-3-yl)piperazin-1-yl)phenyl)imidazo[1,2-a]pyrazin-8-amine]	–
120 nM	> 90 µM	1.17 mL/min/kg	< 200 nM	Nc1cncc(-c2cn3ccnc3c(Nc3ccc(N4CCN(C5COC5)CC4)c(OCCO)c3)n2)n1 [Ex.-5, 2-(5-((6-(6-aminopyrazin-2-yl)imidazo[1,2-a]pyrazin-8-yl)amino)-2-(4-(oxetan-3-yl)piperazin-1-yl)phenoxy)ethanol]	–
128 nM	> 90 µM	1.33 mL/min/kg	< 200 nM	Nc1cncc(-c2cn3ccnc3c(Nc3ccc(N4CCN(CC(CO)CO)CC4)cc3)n2)n1 [Ex.-6, 2-((4-(4-((6-(6-aminopyrazin-2-yl)imidazo[1,2-a]pyrazin-8-yl)amino)phenyl)piperazin-1-yl)methyl)propane-1,3-diol]	–
–	–	–	–	COc1cc(Nc2ncc(F)c(Nc3ccc4c(n3)N(COP(=O)(O)O)C(=O)C(C)(C)O4)n2)cc(OC)c1OC [fostamatinib]	selectively reduce the function and frequency of aberrant GVHD B-cell populations
